Data reported in patent US20150025077A1 (COYOTE PHARMACEUTICALS, INC., priority 2012, published 2015).

Assays:
[1] = system: Rap1; assay: Prenylation of Rap1 in Neuro2A cells, western blotting; assay type: cell-based, mouse; conditions: 100 nM; with GGTI-298; percentage of control (GGTI only)
Description: Mouse neuroblastoma Neuro2A cells were cultured in DMEM supplemented with 10% FBS for 24 hrs. The cells were treated with 102GGA derivative compounds for 24 hrs first before GGTase inhibitor GGTI-298 was added to the culture medium for additional 24 hr incubation. […] Both un-prenylated and total Rap1 protein bands were quantified using Image J and normalized to their respective loading control GAPDH. The results for control and each compound treatment were calculated as the ratio of normalized un-prenylated Rap1 to total Rap1, and averaged from two biological repeats of one experiment. The final results were presented as a percentage of the control treatments (GGTI only) from the same batch experiment. The data shown in the chart were averaged from two repeats of one experiment and presented as the ratio of normalized un-prenylated Rap1 to total Rapt Compound ID numbers in table refer to structures in Table 1 and Table 2.

[2] = system: HSP70; assay: HSP70 levels in Neuro 2a cells, ELISA; assay type: cell-based, mouse; conditions: 48 hrs compound then 24 hrs GGTI-298
Description: Mouse neuroblastoma 2a cells were cultured in DMEM with 10% FBS for 24 hrs. […] After 24 hrs cells were harvested and lysates were prepared and analyzed by ELISA for HSP70. Compound ID numbers in table refer to structures in Table 1 and Table 2.

[3] = system: RhoA; assay: Active RhoA to total RhoA in Neuro2A cells (G-LISA, ELISA); assay type: cell-based, mouse; conditions: 48 hrs treatment, ratio of active RhoA to total RhoA as percentage of DMSO treatments, concentration not given
Description: Mouse neuroblastoma Neuro2A cells were cultured in DMEM supplemented with 10% FBS for 24 hrs. […] Cell lysates were quantified and subjected either to active RhoA assay using G-LISA RhoA activation Assay Biochem Kit (Cytoskeleton Inc), or to total RhoA assay using Total RhoA ELISA Kit (Cytoskeleton Inc). The results were calculated as ratio of active RhoA to total RhoA and averaged from 3 biological repeats of one experiment with background subtraction. The data was presented as percentage of DMSO treatments.

[4] = system: Sprague Dawley rats; assay: Kainic acid stereotactic hippocampus injection model, fraction of cells damaged; assay type: in vivo, rat; conditions: 3 mg/kg oral; KA at 72 hours
Description: CNS-102 was administered orally to Sprague Dawley rats at 12 mg/kg. After dosing, KA was stereotactically injected into the hippocampus at 24, 48, 72, 96 and 168 hours to induce neuron damage. After 24 h, hippocampus tissue was collected, stained, and imaged. The scans were analyzed by Image J to calculate the fraction of cells having KA-induced damage. Average fraction damaged in the hippocampus from ten animals for each treatment (PBS vs. 12 mg/kg CNS-102) by time (24, 48, 72, 96 and 168 hours) combination was estimated with PROC MIXED in SAS. Comparisons of the CNS-102 treatment groups to the pooled PBS treatment at the different times can be made, giving the results tabulated below.
The fraction of cells damaged in the kainic acid model was determined on 130 rats, each receiving one dose of CNS-102 at either 0, 1, 3, 6, 12 or 24 mg/kg. PBS was used for dosing at 0 mg/kg. The linear model of the log10 percent damage versus concentration is graphically shown FIG. 5.
After dosing, KA was stereotactically injected into the hippocampus at 72 hours to induce neuron damage. After 24 h, hippocampus tissue was collected, stained, and imaged. The scans were analyzed by Image J to calculate the fraction of cells having KA-induced damage.
The indicated compounds or vehicle control were orally dosed to Sprague-Dawley rats, and Kainic acid was injected. After dosing, KA was stereotactically injected into the hippocampus at 72 hours to induce neuron damage. After 24 h, hippocampus tissue was collected, stained, and imaged. The scans were analyzed by Image J to calculate the fraction of cells having KA-induced damage. Neurons damaged by Kainic acid (mean of hippocampus CA3 neurons damaged) were quantified.

[5] = system: Sprague-Dawley rats; assay: Kainic acid induced neurodegeneration and seizure behaviors in rats (Examples 20, 21); assay type: in vivo, rat; conditions: oral, Kainic acid
Excerpt: Seizure behaviors were observed and scored (Ref. R. J. Racine, Modification of seizure activity by electrical stimulation: II. Motor seizure, Electroencephalogr. Clin. […] Modifications were made for the methods). Brain tissues of rats were sectioned on histology slides, and neurons in hippocampus tissues were stained by Nissl. Neurons in dentate gyrus tissues damaged by Kainic acid were quantified. The Memantine composition used in comparison refers to a commercially available NMDA receptor […]. […] Seizure behaviors were observed and scored (Ref. R. J. Racine, Modification of seizure activity by electrical stimulation: II. Motor seizure, Electroencephalogr. Clin. […] Modifications were made for the methods). Brain tissues of rats were sectioned on histology slides, and neurons in hippocampus tissues were stained by Nissl. Neurons damaged by Kainic acid and behavior scores were quantified.

[6] = system: SOD1 mice; assay: CatWalk gait analysis in SOD1 mice; assay type: in vivo, mouse; parameters: Hind stride length, Mean/average: unit not given beside the values
Excerpt: Prior to onset, there was little to no difference between the transgenic and wildtype groups. Transgenic animals tended to rely more on front paws for movement as weakness and paralysis in the hind paws progressed. This began to show around timepoint P100, coinciding with the expected onset of disease. This impairment was seen through changes in front and hind paw step cycle, print area, mean intensity, and base of support.

SMILES	unprenylated/total RAP1 (%) [1] [%]	HSP70 level, ELISA signal (absence of compounds normalized as 1.00) ([2]; 100 nM)	% Relative RhoGTPase Activity [3] [%]	HSP70 level, ELISA signal (absence of compounds normalized as 1.00) ([2]; 10uM)	other results
CCOc1cc(OCC)cc(C(=O)OC/C=C(\C)CC/C=C(\C)CC/C=C(\C)CCC=C(C)C)c1 [Compound 2i, 2E, 6E, 10E-Geranylgeranyl-3′,5′-diethoxybenzoate]	92	1.08	105.0		
CC(C)=CCC/C(C)=C/CC/C(C)=C/CC/C(C)=C/COC(=O)Nc1ccc(C(F)(F)F)cc1 [Compound 7q, p-Trifluoromethylphenyl 2E, 6E, 10E-geranylgeranyl carbamate]	48		83.5		HSP70 level, ELISA signal (absence of compounds normalized as 1.00) ([2]; 10 nM): 1.01
CC(C)=CCC/C(C)=C/CC/C(C)=C/CC/C(C)=C/COC(=O)Nc1ccc2ccccc2c1 [Compound 7s, 2′-Naphthyl 2E, 6E, 10E-geranylgeranyl carbamate]	89		86.9	1.10	
COc1ccc(NC(=O)OC/C=C(\C)CC/C=C(\C)CC/C=C(\C)CCC=C(C)C)c(OC)c1 [Compound 7w, 2′,4′-Dimethoxyphenyl 2E, 6E, 10E-geranylgeranyl carbamate]	77	1.14	94.4		
CC(C)=CCC/C(C)=C/CC/C(C)=C/CC/C(C)=C/COC(=O)Nc1cc(Cl)c(Cl)c(Cl)c1 [Compound 7y, 3′,4′,5′-Trichlorophenyl 2E, 6E, 10E-geranylgeranyl carbamate]	68		94.4	1.13	
CCCCCNC(=O)OC/C=C(\C)CC/C=C(\C)CCC=C(C)C [Compound 8b, n-Pentyl 2E, 6E-farnesyl carbamate]	55		125.0	1.38	Mean of Hippocampus CA3 Neurons Damaged [4]: 20%
CCCCNC(=S)OC/C=C(\C)CC/C=C(\C)CC/C=C(\C)CCC=C(C)C [Compound 10e, O-((2E,6E,10E)-3,7,11,15-tetramethylhexadeca-2,6,10,14-tetraen-1-yl) butylcarbamothioate]	56	1.09	89.7		
CC(C)=CCC/C(C)=C/CC/C(C)=C/CC/C(C)=C/c1nnc(-c2ccc(C)cc2)o1 [Compound 29b, 2-((1E,5E,9E)-2,6,10,14-tetramethylpentadeca-1,5,9,13-tetraen-1-yl)-5-(p-tolyl)-1,3,4-oxadiazole]	49	1.11	96.1	1.17	
CCOC(=O)C(C/C=C(\C)CC/C=C(\C)CC/C=C(\C)CC/C=C(\C)CCC=C(C)C)C(C)=O (stereo not shown) [Compound 135]	50		93.2	1.07	
CC12CC3CC(C)(C1)CC(N)(C3)C2 [Memantine, reference compound]					Hippocampus dentate gyrus neurons damaged ([5]; vehicle 20.9): 3.53 Arbitrary units; Seizure behaviors scores ([5]; vehicle 34): 36.2
Nc1nc2ccc(OC(F)(F)F)cc2s1 [Riluzole, reference compound]					Run Duration, Mean/average ([6]; P-42, SOD1/Vehicle 1.484746201): 1.65; Hind stride length, Mean/average ([6]; P-42, SOD1/Vehicle 6.359471205): 6.337; Swing speed, Mean/average ([6]; P-42, SOD1/Vehicle 45.8515272): 43.07; Run Duration, Mean/average ([6]; P-124 (+/−) 3, SOD1/Vehicle 3.461605345): 3.113; Hind stride length, Mean/average ([6]; P-124 (+/−) 3, SOD1/Vehicle 3.607909383): 4.244; Swing speed, Mean/average ([6]; P-124 (+/−) 3, SOD1/Vehicle 23.93413455): 29.71
